Test results from ChEMBL document CHEMBL1149779, “Synthesis, characterization and in vitro release studies of a new acetazolamide-HP-beta-CD-TEA inclusion complex” (Eur J Med Chem, 2008).
≈ marks a conversion by molar mass, not a printed value.

Experiments:
[1] = Permeability across rabbit cornea; assay type: ADME, tissue-based, Oryctolagus cuniculus
[2] = physchem; settings: citric acid-Na2HPO4 buffer, pH 4.12
Description: Solubility in citric acid-Na2HPO4 buffer at pH 4.12

[3] = physchem; settings: citric acid-Na2HPO4 buffer, pH 4.12; remark: listed apart in the source
Description: Solubility in citric acid-Na2HPO4 buffer at pH 4.12 in presence of 0.0226 mol/l hydroxypropyl-beta-cyclodextrin

[4] = physchem; settings: citric acid-Na2HPO4 buffer, pH 4.12; remark: listed apart in the source
Description: Solubility in citric acid-Na2HPO4 buffer at pH 4.12 in presence of 0.0302 mol/l hydroxypropyl-beta-cyclodextrin

[5] = physchem; settings: citric acid-Na2HPO4 buffer, pH 4.12; remark: listed apart in the source
Description: Solubility in citric acid-Na2HPO4 buffer at pH 4.12 in presence of 0.0604 mol/l hydroxypropyl-beta-cyclodextrin

[6] = physchem; settings: citric acid-Na2HPO4 buffer, pH 4.12; remark: listed apart in the source
Description: Solubility in citric acid-Na2HPO4 buffer at pH 4.12 in presence of 0.0755 mol/l hydroxypropyl-beta-cyclodextrin

[7] = physchem; settings: citric acid-Na2HPO4 buffer, pH 4.12; remark: listed apart in the source
Description: Solubility in citric acid-Na2HPO4 buffer at pH 4.12 in presence of 0.1132 mol/l hydroxypropyl-beta-cyclodextrin

[8] = physchem; settings: citric acid-Na2HPO4 buffer, pH 4.12; remark: listed apart in the source
Description: Solubility in citric acid-Na2HPO4 buffer at pH 4.12 in presence of 0.1660mol/l hydroxypropyl-beta-cyclodextrin

[9] = physchem; settings: water
[10] = physchem; settings: water; remark: listed apart in the source
Description: Solubility in water in presence of 0.0151 mol/l hydroxypropyl-beta-cyclodextrin

[11] = physchem; settings: water; remark: listed apart in the source
Description: Solubility in water in presence of 0.0302 mol/l hydroxypropyl-beta-cyclodextrin

[12] = physchem; settings: water; remark: listed apart in the source
Description: Solubility in water in presence of 0.0604 mol/l hydroxypropyl-beta-cyclodextrin

[13] = physchem; settings: water; remark: listed apart in the source
Description: Solubility in water in presence of 0.0755 mol/l hydroxypropyl-beta-cyclodextrin

[14] = physchem; settings: water; remark: listed apart in the source
Description: Solubility in water in presence of 0.1132 mol/l hydroxypropyl-beta-cyclodextrin

[15] = physchem; settings: NaOH-NaHCO3 buffer, pH 9.57
Description: Solubility in NaOH-NaHCO3 buffer at pH 9.57

[16] = physchem; settings: NaOH-NaHCO3 buffer, pH 9.57; remark: listed apart in the source
Description: Solubility in NaOH-NaHCO3 buffer at pH 9.57 in presence of 0.0226 mol/l hydroxypropyl-beta-cyclodextrin

[17] = physchem; settings: NaOH-NaHCO3 buffer, pH 9.57; remark: listed apart in the source
Description: Solubility in NaOH-NaHCO3 buffer at pH 9.57 in presence of 0.0302 mol/l hydroxypropyl-beta-cyclodextrin

[18] = physchem; settings: NaOH-NaHCO3 buffer, pH 9.57; remark: listed apart in the source
Description: Solubility in NaOH-NaHCO3 buffer at pH 9.57 in presence of 0.0604 mol/l hydroxypropyl-beta-cyclodextrin

[19] = physchem; settings: NaOH-NaHCO3 buffer, pH 9.57; remark: listed apart in the source
Description: Solubility in NaOH-NaHCO3 buffer at pH 9.57 in presence of 0.0755 mol/l hydroxypropyl-beta-cyclodextrin

[20] = physchem; settings: NaOH-NaHCO3 buffer, pH 9.57; remark: listed apart in the source
Description: Solubility in NaOH-NaHCO3 buffer at pH 9.57 in presence of 0.1132 mol/l hydroxypropyl-beta-cyclodextrin

[21] = physchem; settings: NaOH-NaHCO3 buffer, pH 9.57; remark: listed apart in the source
Description: Solubility in NaOH-NaHCO3 buffer at pH 9.57 in presence of 0.1660 mol/l hydroxypropyl-beta-cyclodextrin

[22] = physchem; settings: water; remark: listed apart in the source
Description: Solubility in water in presence of 0.334 mol/l triethanolamine

[23] = physchem; settings: water; remark: listed apart in the source
Description: Solubility in water in presence of 0.1001 mol/l triethanolamine

[24] = physchem; settings: citric acid-Na2HPO4 buffer, pH 4.12; remark: listed apart in the source
Description: Solubility in citric acid-Na2HPO4 buffer at pH 4.12 in presence of 0.2 M hydroxypropyl-beta-cyclodextrin

[25] = physchem; settings: NaOH-NaHCO3 buffer, pH 9.57; remark: listed apart in the source
Description: Solubility in NaOH-NaHCO3 buffer at pH 9.57 in presence of 0.2 M hydroxypropyl-beta-cyclodextrin

permeability [1]: 4.1 ×10⁻⁶ cm/s | solubility [2]: 850 µg/mL (≈ 3.82 mM) | solubility [3]: 1660 µg/mL (≈ 7.47 mM) | solubility [4]: 1830 µg/mL (≈ 8.23 mM) | solubility [5]: 2280 µg/mL (≈ 10.3 mM) | solubility [6]: 2960 µg/mL (≈ 13.3 mM) | solubility [7]: 3780 µg/mL (≈ 17 mM) | solubility [8]: 4970 µg/mL (≈ 22.4 mM) | solubility [9]: 810 µg/mL (≈ 3.64 mM) | solubility [10]: 1880 µg/mL (≈ 8.46 mM) | solubility [11]: 2440 µg/mL (≈ 11 mM) | solubility [12]: 4510 µg/mL (≈ 20.3 mM) | solubility [13]: 5530 µg/mL (≈ 24.9 mM) | solubility [14]: 7030 µg/mL (≈ 31.6 mM) | solubility [15]: 2770 µg/mL (≈ 12.5 mM) | solubility [16]: 3210 µg/mL (≈ 14.4 mM) | solubility [17]: 3620 µg/mL (≈ 16.3 mM) | solubility [18]: 4770 µg/mL (≈ 21.5 mM) | solubility [19]: 5290 µg/mL (≈ 23.8 mM) | solubility [20]: 5930 µg/mL (≈ 26.7 mM) | solubility [21]: 7020 µg/mL (≈ 31.6 mM) | solubility [22]: 3860 µg/mL (≈ 17.4 mM) | solubility [23]: 5910 µg/mL (≈ 26.6 mM) | solubility [24]: 4970 µg/mL (≈ 22.4 mM) | solubility [25]: 7020 µg/mL (≈ 31.6 mM)
SMILES: CC(=O)Nc1nnc(S(N)(=O)=O)s1 [ACETAZOLAMIDE]
